Patent publication US20210252094A1, “COMPOSITION FOR IMPROVING SLEEP DISORDERS CAUSED BY CAFFEINE CONTAINING CITRUS RIND EXTRACT” (NOAHS CO., LTD., priority 2018, published 2021)
Entries after “also recorded” stand apart in the source; their conditions may differ.

Tested on: brain hippocampal slices
Assay: Measurement of neural activity of cultured hippocampal slices on microelectrode array (MEA), caffeine-induced
Type: cell-based, Sprague Dawley white young rat
Conditions: for neural activity after washing: 1 mM caffeine plus sample (extract 400 μg/ml, hesperidin 40 μg/ml, narirutin 136 μg/ml), then washed 20 min with artificial cerebrospinal fluid only; for degree of neural activity compared to treatment of caffeine alone: perfused 20 min with 1 mM caffeine plus sample (citrus unshiu peel extract 400 μg/ml, hesperidin 40 μg/ml, narirutin 136 μg/ml), before washing
Text: A method of organotypic culturing of slices of the brain hippocampus using a thin film used an already commonly used method. Specifically, the brain hippocampus was extracted from a Sprague Dawley white young rat (Orientbio Co., Seungnam, Korea) of 5- to 7-day old, and sliced to a thickness of 350 μm using a tissue slicer (Mickle Laboratory Engineering Co., UK). After 5 to 6 slices were disposed into a thin film insert (Millicell-CM; Millipore, MA) with 0.4-μm holes, put in a 6-well plate (SPL Life Sciences Co., Korea), and then cultured in an incubator kept with 5% CO2 at 36° C. (Dong-A Co., Seoul, Korea). A culture solution (MEM; Welgene, Gyeongsan, South Korea), 20 mM HEPES (Sigma, St. Louis, Mo., USA), a 25% Hank's balanced salt solution (HBSS; Welgene, Gyeongsan, South Korea), 6 g/L D-glucose (Sigma, St. Louis, Mo., USA), 1 mM L-glutamine (Sigma, St. Louis, Mo., USA), 25% horse serum (Welgene, Gyeongsan, South Korea), and 1% penicillin-streptomycin (Gibco BRL, USA), pH=7.1) were changed once every two days, and the culture period was 12 to 14 days, and then used in a subsequent experiment (FIG. 5). After the cultured brain hippocampal slices were carefully isolated from the cultured thin film insert using a pin, the brain hippocampal slices were placed on a 8×8 microelectrode array (MEA; Multi Channel Systems, Germany) with a diameter of 10 μm and an interval of 100 μm coated with 0.01% polyethyleneimine (Sigma, St. Louis, Mo., USA). […] Thereafter, the MEA containing the brain hippocampus was mounted on an amplification device MEA1060 (Multi Channel Systems Inc., Reutlingen, Germany), and the artificial spinal cord solution in the MEA was grounded with Ag/AgCl. During the subsequent experiment, the artificial spinal cord solution into which the 5% CO2 and 95% 02 mixed gas was added was perfused at a rate of 3 mL/min, and the MEA and the artificial spinal cord solution were maintained at 33° C. (FIG. 6) . […] The MEA with the hippocampal tissue read data at a sampling rate of 25 kHz for each channel through a total of 60 channels, and was recorded through a computer using MC_Rack and MC_Data Tool (Multi Channel Systems, GmbH) software. A 4-stage band pass filter was used to extract meaningful spikes from all recorded signals, and Equation is as follows. Wherein, X represents a root mean square (RMS) for noise, and k is a factor that determines each threshold. Here, the threshold consisted of a total of three factors (0.6, 1 and 3). […] This process was performed using a MATLAB (Mathworks Inc., Natick, Massachusetts, USA) program for all 60 channels (FIG. 7).

Structure (SMILES)	neural activity after washing	degree of neural activity compared to treatment of caffeine alone	increase of neural activity after washing (1 mM caffeine alone, after washing)
C[C@@H]1O[C@@H](OC[C@H]2O[C@@H](Oc3cc(O)c4c(c3)O[C@H](c3ccc(O)cc3)CC4=O)[C@H](O)[C@@H](O)[C@@H]2O)[C@H](O)[C@H](O)[C@H]1O [narirutin]	maintained without a significant increase; also recorded: neural activity inhibitory effect persisted	significantly reduced	–
COc1ccc([C@@H]2CC(=O)c3c(O)cc(O[C@@H]4O[C@H](CO[C@@H]5O[C@@H](C)[C@H](O)[C@@H](O)[C@H]5O)[C@@H](O)[C@H](O)[C@H]4O)cc3O2)cc1O [hesperidin]	maintained without a significant increase; also recorded: neural activity inhibitory effect persisted	significantly reduced	–
Cn1c(=O)c2c(ncn2C)n(C)c1=O [caffeine, 1,3,7-trimetnylxanthine]	–	–	≥ 200%
